Assay: molar heat capacity at saturation pressure
Conditions: Liquid, Small (less than 1 g) adiabatic calorimetry

C=CC(C)(C)O [2-methyl-3-buten-2-ol]
Conditions	molar heat capacity [J/K/mol]
246.77 K	194.9
247.82 K	195.6
247.97 K	195.7
248.89 K	196.3
249.15 K	196.4
250 K	197.1
250.07 K	197.1
250.13 K	197.2
250.55 K	197.4
251.14 K	197.8
251.38 K	197.9
252.31 K	198.7
252.44 K	198.8
252.58 K	198.8
253.39 K	199.4
253.62 K	199.5
254.55 K	200.3
254.63 K	200.3
254.88 K	200.5
255.63 K	201
255.85 K	201.2
256.68 K	201.8
256.78 K	201.9
257.32 K	202.4
257.86 K	202.7
258.07 K	202.9
258.73 K	203.4
259 K	203.6
259.76 K	204.2
260 K	204.4
260.78 K	205
262.18 K	206.2
262.83 K	206.7
264.6 K	208.1
264.88 K	208.4
266.93 K	210
267.01 K	210.2
268.98 K	211.8
269.4 K	212.2
270 K	212.7
271.03 K	213.5
271.79 K	214.3
273.08 K	215.2
273.15 K	215.4
274.18 K	216.2
275.13 K	217.1
276.55 K	218.4
277.18 K	218.9
278.91 K	220.5
279.23 K	220.7
280 K	221.4
281.26 K	222.6
281.28 K	222.6
283.33 K	224.4
283.61 K	224.6
285.38 K	226.2
285.94 K	226.8
287.43 K	228
288.26 K	228.9
289.48 K	229.9
290 K	230.3
290.57 K	230.9
291.53 K	231.6
292.87 K	232.8
293.58 K	233.4
295.16 K	234.7
295.63 K	235.2
297.44 K	236.8
297.69 K	236.9
298.15 K	237.4
299.72 K	238.7
299.74 K	238.7
300 K	238.9
301.79 K	240.4
303.84 K	242.1
305.9 K	243.7
307.95 K	245.3
310 K	246.9
310.01 K	246.9
312.06 K	248.3
314.12 K	249.9
316.18 K	251.3
318.23 K	252.8
320 K	253.9
320.29 K	254.1
322.35 K	255.4
324.41 K	256.7
326.47 K	258
328.53 K	259.1
330 K	259.9
330.59 K	260.2
332.65 K	261.4
334.71 K	262.3
336.78 K	263.3
338.84 K	264.2
340 K	264.7
340.9 K	265
342.97 K	265.8
345.03 K	266.6
347.09 K	267.3
349.16 K	268
350 K	268.3
351.22 K	268.7
353.29 K	269.1
355.35 K	269.8
357.42 K	270.4
359.48 K	270.9
360 K	270.9
361.55 K	271.3
363.61 K	271.6
365.68 K	272.1
367.74 K	272.4
370 K	272.9
